Laboratory results from patent US20080078408A1, “URETHRAL CONDOMS AND LIQUID FEMALE CONDOMS” (priority 2005, published 2008).

Columns and labels:
[1] = Physical blocking wall test: pigments and dye rubbed on coated, incised swine vaginal segments, then rinsed and scrubbed
Source text: EXPERIMENT 6: Two pigments whose particle size distributions correspond to sizes of STD-causing germs including HIV (diameter=125 nm) were chosen. The blue pigment (PIG-1) had the particle size distribution of 100-20,000 nm, while the violet pigment (PIG-2) had the particle size distribution of 30-500 nm. For the purpose of comparison, a blue dye ink (DYE) (molecular diameter=2.7 nm) was used as well. Instead of the human vagina, the swine vagina was used. […] Then, the vaginal segments in the left column were wetted with water, while those in the second, the third, the fourth and the fifth column were applied with corn syrup (SYRUP, 55% maltose), a composition made from polyvinyl alcohol (PVA-gel), a composition made from sodium carboxymethyl cellulose (SCMC-gel) and a composition made from hydroxyethyl cellulose (HEC-gel), respectively, as shown in FIG. 2B. After that, the blue pigment (PIG-1) was applied on the vaginal segments in the upper row, while the violet pigment (PIG-2) and the blue dye ink (DYE) were applied on the vaginal segments in the middle and the lower row, respectively, as shown in FIG. 2C. The pigments and the dye ink applied on the vaginal segments were rubbed 50 times violently with the index finger being pressed in an attempt to simulate the frictional movement of coitus. Thereafter that, they were scrubbed off and cleansed out with the vaginal scrubbing sponge of the present invention as shown in FIG. 6.

sperms = test: Spermicidal test: semen on a slide glass mixed with a drop of liquid, observed with an optical microscope; assay type: cell-based
Source text: The present inventor discovered a surprising fact for the first time that distilled water is an excellent spermicide.
EXPERIMENT 1: The fact that distilled water is an excellent spermicide was proven experimentally as follows: (1) One drop of semen was spread on a slide glass with a cotton swab and active movements of sperms were confirmed. (2) Upon mixing with a drop of distilled water, 100% of sperms stood still immediately. […] All sperms might be dead by explosive expansion of the sperm cell. While not wishing to be bound by any particular theory, the inventor believes that this is due to a lot of water smeared into the cell due to the difference in osmotic pressure between the cell and distilled water.
(3) Upon decreasing the viscosity by adding several drops of saline solution, the sperms regained their original activity.
EXPERIMENT 4: The fact that polymer solutions made from distilled water and water-soluble polymers exterminated sperms was verified experimentally as follows: (1) One drop of semen was spread on a slide glass with a cotton swab and active movements of sperms were confirmed. (2) Upon mixing with a drop of water-soluble polymer solution, all sperms came to a standstill without any movement in their heads or tails. […]

Structure (SMILES)	pigments left on incisions ([1]; incisions, after rinsing and scrubbing)	blue dye ink (molecular diameter 2.7 nm) left after being rinsed and scrubbed ([1]; intact vaginal surfaces and incisions)	pigments (PIG-1, PIG-2; 30-20,000 nm) left on vaginal segments after rinsing ([1]; intact vaginal surfaces and incisions, rubbed 50 times, rinsed with running water, then scrubbed)	sperm activity upon later addition of saline solution (sperms; saline solution added after mixing with the liquid)	sperms stood still immediately upon mixing (sperms; semen on slide glass mixed with drop(s) of the liquid) [%]
O [water]	remained heavily	remained heavily	still remained		
O [distilled water]				failed to show any activity	100
